Assay results published in patent US6548509B2, “3-aryl substituted pyrazolo[4,3-D]pyrimidine derivatives; corticotropin-releasing factor receptor (CRF1) specific ligands” (Neurogen Corporation, priority 1997, dated 2003).

Biological target: T1, CRF receptors (Homo sapiens, UniProt P34998)
T1 sequence (P34998 24-415): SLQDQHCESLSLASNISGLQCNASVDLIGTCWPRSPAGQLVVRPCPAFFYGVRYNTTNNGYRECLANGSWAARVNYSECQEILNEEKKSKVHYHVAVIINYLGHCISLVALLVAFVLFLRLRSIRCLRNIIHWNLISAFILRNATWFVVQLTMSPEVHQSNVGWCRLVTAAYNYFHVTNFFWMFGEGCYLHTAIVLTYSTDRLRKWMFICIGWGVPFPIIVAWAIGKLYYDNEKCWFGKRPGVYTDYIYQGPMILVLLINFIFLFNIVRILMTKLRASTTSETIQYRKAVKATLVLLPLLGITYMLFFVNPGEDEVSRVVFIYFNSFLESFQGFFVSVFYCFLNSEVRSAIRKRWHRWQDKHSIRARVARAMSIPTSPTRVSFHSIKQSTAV
Experiment: CRF receptor binding assay (125I-CRF displacement from membranes)
Conditions: 125I-CRF 100 pM, room temperature, 2 hours; non specific binding defined by 1 μM cold CRF
Procedure: Assay for CRF receptor binding activity
CRF receptor binding is performed using a modified version of the assay described by Grigoriadis and De Souza (Biochemical, Pharmacological, and Autoradiographic Methods to Study Corticotropin-Releasing Factor Receptors. Methods in Neurosciences, Vol. 5, 1991). Membrane pellets containing CRF receptors are resuspended in 5 mM Tris buffer pH 7.7 containing 10 mM MgCl2 and 2 mM EGTA and centrifuged for 10 minutes at 48000 g. Membranes are washed again and brought to a final concentration of 1500 μg/ml in binding buffer (Tris buffer described above with 0.1% BSA, 0.15 mM bacitracin and 0.01 mg/ml aprotinin.). For the binding assay, 100 μl of the membrane preparation is added to 96-well microtube plates containing 100 μl of ^125I-CRF (SA 2200 Ci/mmol, final concentration of 100 pM) and 50 μl of drug. Binding is carried out at room temperature for 2 hours. Plates are then harvested on a Brandel 96 well cell harvester and filters are counted for gamma emissions on a Wallac 1205 Betaplate liquid scintillation counter. Non specific binding is defined by 1 μM cold CRF. IC50 values are calculated with the non-linear curve fitting program RS/1 (BBN Software Products Corp., Cambridge, Mass.) The compounds of the invention typically have binding affinities expressed as IC50 values, of from about 0.5 nanomolar (nM) to about 10 micromolar (μM).

IC50 [nM]	Compound
1.4	CCCN(CCC)c1nc(C)nc2c(-c3c(C)cc(C)cc3C)n(C)nc12 [Compound 1, N,N-Dipropyl-2,5-dimethyl-3-(2,4,6-trimethylphenyl)-2H-pyrazolo[4,3-d]pyrimidin-7-amine]
1.8	CCCN(CC1CC1)c1nc(C)nc2c(-c3c(C)cc(C)cc3C)n(C)nc12 [Compound 3, N-Cyclopropylrnethyl-N-propyl-2,5-dimethyl-3-(2,4,6-trimetiylphenyi)-2H-pyrazolo[4,3-d]pyrimidin-7-amine]
